From ChEMBL document CHEMBL3600293, “Design, synthesis and evaluation of MCH receptor 1 antagonists--Part I: Optimization of HTS hits towards an in vivo efficacious tool compound BI 414” (Bioorg Med Chem Lett, 2015)

What was measured:
[1] = in vitro; conditions: rat, liver microsomes
Description: Half life in rat liver microsomes

[2] = in vitro; conditions: human, liver microsomes
Description: Half life in human liver microsomes

NC(=O)C1CCN(CCOc2ccc(C#Cc3ccc(-c4ccc(Cl)cc4)cn3)cc2)CC1
half-life [1]: 21 min | half-life [2]: > 90 min
